From patent US12064507B2, “Composition and method for oral treatment of leukemia” (Provectus Pharmatech, Inc., priority 2019, dated 2024)
Like-named read-outs stand apart in the source and are kept apart here. Where a SMILES comes first, the peptide text is derived from it. [ ]: non-standard residue; d: D form. The star is where a group is joined. Dolaproine = CO[C@@H]([C@@H]1CCCN1)[C@@H](C)C(=O)O; Dil = CC[C@H](C)[C@H](NC)[C@@H](CC(=O)O)OC; X1 = C[C@@H](N*)[C@@H](O)c1ccccc1; NMeV = CN[C@H](C(=O)O)C(C)C

What was measured:
[1] = tested on: SEM cells (human ALL cells labelled with GFP); assay: survival of CB17 SCID mice with SEM leukemia xenograft, oral treatment; type: in vivo; settings: for survival / therapeutic activity in words: oral gavage twice weekly for two weeks, FIG. 1
Procedure: FIG. 1 is a graph showing survival of CB17 SCID mice from Charles River Laboratories International, Inc., treated with orally-administered rose bengal disodium. Exponentially-growing SEM cells (2.5×10^6 human ALL cells labelled with GFP) were injected intravenously into each animal and the establishment of tumors was monitored. After 4 weeks to permit the growth of the tumor, mice were randomized to three groups. Group 1 (n=9 control animals) received 100 μL of PBS given orally twice a week for two weeks. Group 2 (n=8 treatment Cohort I animals) received 25 μL of rose bengal disodium present at 10% w/v in 0.9% NaCl aqueous solution that was diluted in PBS to a final volume of 100 μL and given orally twice a week for 2 weeks. Group 3 (n=8 treatment Cohort II animals) received 12.5 μL of the above 10% w/v in 0.9% NaCl aqueous solution that was diluted in PBS to a final volume of 100 μL and administered orally twice a week for 2 weeks. […] Data are presented as Kaplan-Meier estimates.
Female C17 SCID mice from Charles River
The SEM cell line was initially established from a 5 year old female with B acute lymphoblastic leukemia. It carries the MLL-AFFF1 gene fusion and heterozygous for CDKN2A and TP53.
2.5×10^6 exponentially growing SEM cells [labelled with green fluorescent protein (GFP)] were injected intravenously into each animal and the establishment of tumors was monitored. After 4 weeks to permit the growth of the tumors, mice were randomized to three groups.
These animals received 100 μL of PBS given orally twice a week for two weeks.
These animals received 25 μL of PV-10® (10% rose bengal disodium w/v in 0.9 percent in aqueous saline) diluted in PBS to a final volume of 100 μL and given orally by gavage twice a week for 2 weeks.
These animals received 12.5 μL of PV-10® (as discussed above) diluted in PBS to a final volume of 100 μL and given orally by gavage twice a week for 2 weeks.
Data are presented in FIG. 1 as Kaplan-Meier estimates.

[2] = oral bioavailability, mass balance studies; type: in vivo; settings: aqueous solution, estimated from mass balance studies
Procedure: Bioavailability of RB disodium administered in aqueous solution via the oral route appears to be limited based on mass balance studies conducted by the inventors, and can be estimated at 0.1-1 percent, corresponding to a daily systemic exposure of 0.2-2 mg/kg. Presuming this amount is distributed through the bloodstream, and that blood volume comprises approximately 10 percent of body weight, this equates to an estimated concentration of 2-20 μM RB in the blood.

[3] = oral bioavailability, radiolabel studies with 14C-RB; type: in vivo; settings: 14C-RB in aqueous solution given orally to mice
Source text: The bioavailability of various HX compounds such as disodium rose bengal has not been well characterized. Studies commissioned by one of the assignees concluded that bioavailability of disodium rose bengal is less than (<) 1% based on radiolabel studies where ^14C-RB in aqueous solution was given orally to mice. In the stomach, with a pH value<4, an HX compound is likely to be in the lactone form.

[4] = solubility and behaviour of HX compound forms in aqueous media; type: physicochemical; settings: solutions of disodium RB mixed in
Source text: The dibasic salt forms of the HX compounds exist in solution having a pH greater than approximately 5, whereas at pH values<5 the HX compounds spontaneously convert to their lactone form. […] Thus, optimizing formulation to properly compensate for the pH value of the GI tract is perhaps the most important parameter affecting bioavailability. For example, in the stomach, where pH value<4, dissolved HX compound is rapidly converted to the insoluble lactone form.
For example, the highly acidic gastric environment (pH 1.5-2 in the fasted state; pH 3-6 in the fed state) rises rapidly to about pH 6 in the duodenum and increases along the small intestine to pH 7.4 at the terminal ileum. The pH value in the cecum drops just below pH 6 and again rises in the colon reaching pH 6.7 at the rectum [Hua, Front Pharmacol 11:Article 524 (April 2020)].

[5] = tested on: Apc^Min colorectal tumor model; type: in vivo, mice
Procedure: 26, 2021. […] Presuming a daily drinking water consumption rate of approximately 2 mL/10 g body weight, this corresponds to consumption of approximately 2 mg RB/10 g (200 mg/kg).
Those Apc^min mice are understood to have thereby consumed approximately 8 mg/10 g/day=800 mg/kg/day. That amount is consistent with toxicology data showing such a dose is tolerated.

[6] = tolerated dose in clinical studies of PV-10; type: in vivo, human
Procedure: The classic intravenous (IV) diagnostic assay for liver function using RB was conducted giving 100 mg RB as a single IV dose. In clinical studies of PV-10® aqueous RB disodium solution, RB has been tolerated at 1500 mg delivered IV. The standard adult blood volume is approximately 5 L. Thus, to achieve 100 mg/L in the blood, an adult patient would need to receive approximately 500 mg of RB IV to achieve the IC50 value in the bloodstream.
In clinical studies of PV-10® aqueous RB disodium solution, RB has been tolerated at 1500 mg delivered IL.

[7] = clearance from circulation; cited from earlier work
[8] = fed ad libitum continuously for 2 years, C57BL6N mice; cited from earlier work
[9] = 112 mg bolus, 60 kg adult human, 1.9 mg/kg; cited from earlier work
[10] = cited from earlier work
[11] = tested on: solid tumors (e.g., melanoma, hepatocellular carcinoma, breast carcinoma); settings: intralesional, intratumoral RB about 25-50 mg/g tumor tissue (25-50 mM); cited from earlier work
[12] = tested on: pediatric solid tumors (neuroblastoma and neuroepithelioma); settings: in vitro contact for 96 hours; cited from earlier work
[13] = tested on: several cancer cell lines; settings: cited from earlier work
[14] = nude mice; cited from earlier work
[15] = human, in vivo; cited from earlier work
[16] = symptomatic mice, 1 mg/mL ad libitum in drinking water

**Q.** Which “survival of mice treated with lesser amounts” value ([1]; lesser amounts of HX compound (Cohort II, 12.5 μL PV-10), compared with the 62.5% group) does the source give for `O=C([O-])c1c(Cl)c(Cl)c(Cl)c(Cl)c1-c1c2cc(I)c(=O)c(I)c-2oc2c(I)c([O-])c(I)cc12.[Na+].[Na+]` [RB disodium, 4,5,6,7-tetrachloro-2′,4′,5′,7′-tetraiodofluorescein disodium] here?
**A.** Its value is “much poorer survival rates”.

**Q.** And the “treated leukemic mice that survived for 120 days” value ([1]; oral gavage twice a week for 2 weeks, higher-dose group (Cohort I, 25 μL PV-10))?
**A.** Its value is 62.5%.

**Q.** What about the “survival / therapeutic activity in words” value ([1]; two treatment groups) of the same molecule?
**A.** The value was “dose-dependent survival”.

**Q.** And the “bioavailability via the oral route” value [2]?
**A.** Its value is 0.1-1%.

**Q.** What about the bioavailability [3] of the same molecule?
**A.** The bioavailability was < 1%.

**Q.** And the “behaviour in water solution having the pH value of the human stomach” value [4]?
**A.** Its value is “rapid clouding of the admixture and clumping”.

**Q.** With `O=C1OC2(c3cc(I)c(O)c(I)c3Oc3c2cc(I)c(O)c3I)c2c(Cl)c(Cl)c(Cl)c(Cl)c21` [RB, 4,5,6,7-tetrachloro-2′,4′,5′,7′-tetraiodofluorescein] as the molecule, how does the “estimated RB in the blood” value ([1]; assuming 1% bioavailability, intestinal transit 6 hours, blood volume 10 percent of body weight, two treatment groups) read?
**A.** Its value is 125 to 250 µM.

**Q.** And the “survival / therapeutic activity in words” value ([1]; two treatment groups)?
**A.** Its value is “therapeutic activity was observed”.

**Q.** And the “effect on onset of disease” value ([5]; 4 mg/mL ad libitum in drinking water (about 800 mg/kg/day))?
**A.** The value was “arrested onset of disease”.

**Q.** And the “estimated concentration of RB in the blood” value ([5]; mouse, in vivo)?
**A.** Its value is 2 to 20 µM.

**Q.** And the “increase in mean survival relative to untreated mice” value [5, 16]?
**A.** Its value is ~38%.

**Q.** What about the mean survival [5, 16] of the same molecule?
**A.** The mean survival was 12.3±0.5 weeks.

**Q.** And the dose tolerated ([6]; delivered IL)?
**A.** The dose tolerated was 1500 mg.

**Q.** And the dose tolerated ([6]; delivered IV)?
**A.** The dose tolerated was 1500 mg.

**Q.** And the “circulatory half-time (t1/2)” value [7]?
**A.** Its value is “about 30 minutes”.

**Q.** And the dose well tolerated [8]?
**A.** The dose well tolerated was 970 mg/kg/day.

**Q.** And the “morbidity after IV bolus” value [9]?
**A.** The value was “not reported to yield morbidity”.

**Q.** And the pKa value [10]?
**A.** The pKa value was 2.52.

**Q.** And the pKa value ([10]; second value)?
**A.** Its pKa value is 1.81.

**Q.** What about the “time until acute tumor cytotoxicity is evident” value [11] of the same molecule?
**A.** Its value is ≤ 30 min.

**Q.** And the concentrations demonstrating cytotoxicity [12]?
**A.** The concentrations demonstrating cytotoxicity was 50 to 100 µM.

**Q.** With `CC[C@H](C)[C@@H]([C@@H](CC(=O)N1CCC[C@H]1[C@H](OC)[C@@H](C)C(=O)N[C@H](C)[C@@H](O)c1ccccc1)OC)N(C)C(=O)[C@@H](NC(=O)[C@@H](NC)C(C)C)C(C)C` [monomethyl auristatin] (H-[NMeV]V[Dil][Dolaproine]-X1) as the molecule, how does the IC50 [13] read?
**A.** Its IC50 is < 1 nM.

**Q.** For Calicheamicin, which LD50 [14] is on record?
**A.** The LD50 was 0.32 mg/kg.

**Q.** For “ipilimumab: anti-CTLA-4 monoclonal antibody, immune checkpoint inhibitor”, which “terminal t1/2” value [15] is on record?
**A.** Its value is 15.4 days.
